According to publication PMC8533176, “1,5-Benzodiazepin-2(3H)-ones: In Vitro Evaluation as Antiparkinsonian Agents” (Antioxidants, 2021):

Assays:
[1] = ABTS radical scavenging assay; type: biochemical
Description: The mixture was stored in the dark at room temperature for 16 h. […] All the compounds tested were dissolved in EtOH. […] The degree of decolorization was calculated as the percentage reduction of absorbance. […] Trolox was used as a reference antioxidant.

[2] = Ferric reducing antioxidant power (FRAP) assay; type: biochemical; set-up: FRAP Assay Trolox Equivalents: unit not given here
Description: FRAP reagent was prepared by mixing 10 mL of 300 mM acetate buffer with 1 mL of 10 mM 2,4,6-tripyridyl-S-triazine (TPTZ) in HCl 40 mM and 1mL of FeCl3·6H2O 20 mM. […] Trolox was used as assay control.

SH-SY5Y cells [3] = experiment: Resazurin cell viability assay under H2O2; type: cell-based, human; details: H2O2 250 µM 24 h; Figure 10B
SH-SY5Y cells [4] = experiment: Neuroprotection in the MPP+ neurotoxicity-induced model, MTT; type: cell-based, human; details: MPP+ 700 µM 48 h; compounds 24 h before
SH-SY5Y cells [5] = experiment: Intracellular ROS levels (DCFH2-DA); type: cell-based, human; details: 400 µM H2O2 4 h; compounds 24 h before
Description: Intracellular ROS levels were determined using dichlorofluorescein diacetate (DCFH2-DA) according to Wang et al.. DCFH2-DA is cleaved by intracellular esterases and is oxidized by ROS to form the fluorescent compound DCF, which represents the ROS level. Therefore, 3 × 10^3 SH-SY5Y cells were seeded in 96-well culture black clear bottom plates and after 24 h were treated with the test compound for an additional 24 h. Then, they were exposed to H2O2 for 4 h. After the incubation period, cells were washed twice with Hanks buffer and loaded with 20 µM DCFH2-DA (in FBS-free culture medium) for 40 min in dark at 37 °C in a CO2 incubator. At the end of the dye incubation period, they were washed twice with Hanks buffer to remove the extracellular DCFH2-DA. Fluorescence was measured with a Varioskan microplate reader at λex = 485 nm and λem = 535 nm wavelengths. Results are expressed as a percentage of the fluorescent increase compared with that of the control. All the experiments were performed at least three times in quadruplicate for each compound concentration.

SH-SY5Y cells [6] = experiment: Mitochondrial membrane potential (JC-1); type: cell-based, human; details: 400 µM H2O2 4 h; compounds 24 h before at different concentrations
Description: The fluorescent dye 5,5′,6,6′-tetrachloro-1,1′,3,3′-tetraethylbenzimidazolylcarbocyanine iodide (JC-1) was used for measuring MMP [89]. A decrease in fluorescence intensity represents mitochondrial membrane depolarization. For fluorescence ratio detection under oxidative stress conditions, 96-well culture black clear bottom plates were seeded with 3 × 10^3 SH-SY5Y cells, and after 24-h incubation, they were treated with the test compound and left out for 24 h. Then, the cells were exposed to different H2O2 concentrations for 4 h. After the incubation period, the cells were washed twice with Hanks buffer and then stained with 5 µM JC-1 in culture media in the dark in a CO2 incubator at 37 °C for 20 min. At the end of the dye incubation period, cells were washed three times with Hanks buffer, and 200 µL of fresh buffer was added. Cells were analyzed with a Varioskan microplate reader. J-aggregate red fluorescence intensity was measured at λex = 535 nm and λem = 595 nm, while λem = 485 nm and λem = 535 nm was used for J-monomer green fluorescence. Results were expressed as the ratio of fluorescence intensity of J-aggregates to J-monomers. All the experiments were performed three times in quadruplicate for each compound concentration.

SH-SY5Y cells [7] = experiment: Lipid peroxidation (MDA, TBARS); type: cell-based, human; details: 250 µM H2O2 24 h; 10 and 20 µM 24 h before
Description: For MDA studies, 2 × 10^5 SH-SY5Y cells were seeded in 6-well culture plates. After 24 h, cells were treated with the test compound and incubated for another 24 h. After compound treatment, cells were exposed to H2O2 for 24 h. Then, the cells were washed twice with cold 50 mM PBS buffer, detached, and lysed with lysis buffer, and TBA was added to each sample tube and vortexed. The reaction mixture was incubated at 96 °C for 60 min. After incubation, samples were cooled and centrifuged 10 min at 10^4 rpm. Samples were dispensed in 96-well culture black clear bottom plates, and fluorescence was measured with a Varioskan microplate reader at λex = 540 nm and λem = 590 nm wavelengths. Protein concentration was measured by the Bradford protein assay. The levels of MDA were expressed as nmol/mg protein. Experiments were performed four times in triplicate.

SH-SY5Y cells [8] = experiment: Intracellular GSH recovery (monochlorobimane); type: cell-based, human; details: H2O2 250 µM 24 h; 5, 10 and 20 µM
Description: For intracellular GSH determination studies, the method of Senft et al. was used. In summary, 3 × 10^3 SH-SY5Y cells were seeded in 96-well culture black clear bottom plates and after 24 h were treated with the test compound for an additional 24 h. Then, they were exposed to H2O2 for 24 h. After the incubation period, cells were loaded with 30 µM mClB and incubated at 37 °C for 30 min in a CO2 incubator as described by Sebastia et al.. At the end of the mClB incubation period, fluorescence was measured with a Varioskan microplate reader at λex = 405 nm and λem = 475. Results are expressed as the percentage of the fluorescence increase compared with that of the control. Experiments were performed four times in triplicate.

[9] = Apoptosis and necrosis by flow cytometry (Annexin V-PE/7-AAD); details: human, SH-SY5Y cells
SH-SY5Y cells [10] = experiment: as above; details: 10 and 20 µM 24 h, then H2O2 1 mM 4 h

In the case of `O=C1CC(c2ccccc2)=Nc2ccccc2N1` [Compound 18, 4-Phenyl-1H-1,5-benzodiazepin-2(3H)-one], the IC50 ([1]; 30-min incubation) is reported as 187 ± 15.2 µM, the “ABTS Assay TEAC50” value ([1]; Equivalent antioxidant capacity at Trolox 50 mM) is reported as 0.36 and the “ABTS Assay TEAC100” value ([1]; Equivalent antioxidant capacity at Trolox 100 mM) is reported as 0.21. For the same compound, the “FRAP Assay Trolox Equivalents” value [2] was 0.89, the “FRAP Assay Antioxidant Capacity (%) at 100 uM” value ([2]; compound at 100 uM) was 45.7% and the “FRAP Assay Antioxidant Capacity (%) at 200 uM” value ([2]; compound at 200 uM) was 65.1%. The “Neuroprotection, cell viability (resazurin)” value (SH-SY5Y cells [3]) was “significant protection against the oxidative stress insult”, the “Neuroprotection, cell viability (MTT), MPP+ model” value (SH-SY5Y cells [4]) was “small significant neuroprotection at 1 and 2 µM” and the “Intracellular ROS level reduction” value (SH-SY5Y cells [5]) was “ROS level reduction at all doses”. For the same compound, the MMP recovery (SH-SY5Y cells [6]) was 10–25%, the “Effect on MDA levels” value (SH-SY5Y cells [7]) was “significantly prevented” and the “intracellular GSH recovery” value (SH-SY5Y cells [8]) was 18–20%. The viability at 24 h, 10 µM [9] was 26.6%, the viability at 24 h, 20 µM [9] was 28.1% and the “Effect on apoptotic cell populations” value (SH-SY5Y cells [10]) was “reduced the number of late apoptotic cells”.
